Reference: patent US20250351832A1, “PHYTOCHEMICALS AS BIOPESTICIDES AND BIOSTIMULANTS” (KAY BEE BIO ORGANICS PVT. LTD., priority 2024, published 2025)

Tested on: Tomato thrips
Assay: In vitro bio-efficacy, Tomato thrips (Ex. 57)
Conditions: Dose 0.8 ml/lit

In the case of CON=CNC(=O)c1ccc(C2=NOC(c3cc(Cl)cc(Cl)c3)(C(F)(F)F)C2)cc1C (stereo not drawn) [Fluxametamide], the “% Corrected Mortality at 72 hrs.” value is reported as 57.89%, the “% Mortality at 72 hrs.” value is reported as 60.0% and the “Total no of dead insects at 72 hrs.” value is reported as 24.0.
